pIC50: −log10 of the molar value. Like-named read-outs stand apart in the source and are kept apart here.
Experiments:
LTD4 = test: Oral Testing of Leukotriene Antagonists (guinea pig, SRS-A antagonism); format: in vivo, guinea pig (Hartley strain, Charles River); conditions: 10 mg/kg P.O., two hours prior to challenge with leukotriene
Method: (c) Oral Testing of Leukotriene Antagonists
Male guinea pigs (Hartley strain, Charles River) weighing 400 to 600 g were anesthetized with urethane (2 g/kg) intraperitoneally and a polyethylene cannula was inserted into the jugular vein for intravenous drug administration. Tracheal pressure (cm water) was recorded from a Statham pressure transducer. After surgical preparation of the animals, a period of time was allowed for spontaneous breathing to stabilize. […] Two minutes later, spontaneous breathing was arrested with succinylcholine chloride (1.2 mg/kg, i.v.) and the animals ventilated with a Harvard (Model #680) small animal respirator set at 40 breaths per minute and 4.0 cc stroke volume. The animals were challenged with a maximum constrictory dose of either leukotriene C4 or leukotriene D4 or leukotriene E4 ([…], i.v.) at 5 minutes. Control vehicle or test drug (adjusted to an alkaline pH where necessary for drug solubilization) was administered (10 mg/kg, p.o) two hours prior to challenge with leukotriene. In order to determine the ID50 for a test drug, the dose is varied from 10 mg/kg, p.o. to 100, 50, 30, 20, 5, 3 and 1 mg/kg. p.o.
In order to determine oral duration of action, the time between exposure to test drug and challenge with leukotriene is varied.
In test procedure (c), the compounds listed in Table III were tested by this oral procedure, and the results obtained are also set out in Table III.

[1] = tested on: SRS-A induced constriction of the guinea pig ileum; test: Guinea Pig Ileum, In Vitro (SRS-A antagonism); format: cell-based; conditions: Cavia porcellus
Method: (a) Guinea Pig Ileum, In Vitro:
The guinea pig ileum biassay system has been described by Orange Austen, Adv. Immunol. 10: 105-144 (1969). A 1.5 cm segment is removed from animals weighing 300-400 g and suspended in an organ bath containing 10 ml of Tyrodes solution with 10^-6 M atropine sulfate and 10^-6 M pyrilamine maleate. The bath is maintained at 37° C. and aerated with a mixture of 95% oxygen and 5% carbon dioxide. The SRS-A utilized in this screen is obtained by challenging chopped lung fragments from actively sensitized guinea pigs with egg albumin, in vitro. A dose-response curve to SRS-A challenge is established for the ileum. The dose of SRS-A which given 50% of the maximal contraction (EC50) is then used for subsequent challenge. The drug concentration which inhibits, by 50%, the SRS-A induced constriction of the guinea pig ileum is determined.

leukotriene E4 = test: Guinea Pig Bronchoconstriction, In Vivo (Aerosol) (SRS-A antagonism); parameters: species or system guinea pig (Hartley strain); conditions: leukotriene E4 i.v. challenge; for In vivo-aerosol IC50: 5 min exposure, % (w/v) conc.
Method: (b) Guinea Pig Bronchoconstriction, In Vivo (Aerosol):
Male guinea pigs (Hartley strain) weighing 300 to 500 g are anesthetized with urethane (2 g/kg) intraperitoneally and a polyetylene cannula is inserted into the jugular vein for drug administration. Tracheal pressure is recorded from a cannula inserted in the trachea and connected to a Statham pressure transducer. After surgical preparation of the animals, a period of time is allowed from pulmonary functions to stabilize. The test compound is administered according to the following protocol. Propanolol (0.1 mg/kg) is administered intravenously while the animals breathed spontaneously. Five minutes thereafter, the animals are exposed for a five minute period to a 1% (w/v) aerosol solution of test compound (adjusted to an alkaline pH where necessary for drug solubilization) or to distilled water of the appropriate pH (for control purposes). A Monaghan (Model 750) ultrasonic nebulizer is used to administer all test compounds by inhalation. The nebulizer ultrasonic frequency is adjusted to produce particles in the 1-8μ diameter range (average 3μ). Aqueous solutions are prepared freshly and introduced into the chamber of the nebulizeer. The output of the nebulizer is made available to the animal by directing a bias flow of aerosol through a Y tube connected to the tracheal cannula. At the end of the exposure period, the animals are paralyzed with succinylcholine (1.2 mg/kg, i.v.) and mechanically respirated (Harvard rodent respirator) at 40 breaths/minute and 2.5 cc tidal volume. […]
The change (cm H2 O) between pre and peak ventilatory pressure readings averaged for three control animals and five drug treated animals. The percent inhibition is calculated from the following formula: [formula] When various drug concentrations are tested, the percent inhibition at each concentration is plotted as log concentration (abscissa) versus percent inhibition (ordinate) and the IC50 is determined from linear regression analysis.

[2] = SRS-A challenge at EC50, Table I, read-out: In vitro G.P. ileum IC50

Structure (SMILES): CCCc1c(OCCCCC2(C)CC(=O)c3ccc(OCCCC(=O)OCC)c(CCC)c3O2)ccc(C(C)=O)c1O (racemic) [rac.-4-[2-[4-(4-acetyl-3-hydroxy-2-propylphenoxy)butyl]-3,4-dihydro-2-methyl-4-oxo-8-propyl-2H-1-benzopyran-7-yl]oxy]butanoic acid ethyl ester]
- % Inhib. of LTD4 (LTD4): 38 ± 7%

Structure (SMILES): CCCc1c(OCCCCC2(C)CC(=O)c3ccc(OCCCC(=O)O)cc3O2)ccc(C(C)=O)c1O (racemic) [rac.-4-[[2-[4-(4-acetyl-3-hydroxy-2-propylphenoxy)butyl]-3,4-dihydro-2-methyl-4-oxo-2H-1-benzopyran-7-yl]oxy]butanoic acid]
- pIC50 [1, 2]: 5.52

Structure (SMILES): CCCc1c(OCCCCC2(C)CC(=O)c3ccc(OCCCC(=O)O)c(CCC)c3O2)ccc(C(C)=O)c1O (racemic) [rac.-4-[[2-[4-(4-acetyl-3-hydroxy-2-propylphenoxy)butyl]-3,4-dihydro-2-methyl-4-oxo-8-propyl-2H-1-benzopyran-7-yl]oxy]butanoic acid]
- pIC50 [1, 2]: 6.00

Structure (SMILES): CCCc1c(OCCCCC2(C)CC(=O)c3ccc(OCC(=O)O)c(CCC)c3O2)ccc(C(C)=O)c1O (racemic) [rac.-[2-[4-(4-acetyl-3-hydroxy-2-propylphenoxy)butyl]-3,4-dihydro-2-methyl-4-oxo-8-propyl-2H-1-benzopyran-7-yl]oxy]acetic acid]
- pIC50 [1, 2]: 5.70

Structure (SMILES): CCCc1c(OCCCCC2(C)CC(=O)c3ccc(OCC(=O)OC)cc3O2)ccc(C(C)=O)c1O (racemic) [rac.-[[2-[4-(4-acetyl-3-hydroxy-2-propylphenoxy)butyl]-3,4-dihydro-2-methyl-4-oxo-2H-1-benzopyran-7-yl]oxy]acetic acid methyl ester]
- % Inhib. of LTD4 (LTD4): 47 ± 5%

Structure (SMILES): CCCc1c(OCCCCC2(C)CC(=O)c3ccc(OCC(=O)O)cc3O2)ccc(C(C)=O)c1O (racemic) [rac.-[[2-[4-(4-acetyl-3-hydroxy-2-propylphenoxy)butyl]-3,4-dihydro-2-methyl-4-oxo-2H-1-benzopyran-7-yl]oxy]acetic acid]
- pIC50 [1, 2]: 5.30

Structure (SMILES): CCCc1c(OCCCCC2(C)CC(=O)c3ccc(OCC(=O)OC)c(CCC)c3O2)ccc(C(C)=O)c1O (racemic) [rac.-[[2-[4-(4-acetyl-3-hydroxy-2-propylphenoxy)butyl]-3,4-dihydro-2-methyl-4-oxo-8-propyl-2H-1-benzopyran-7-yl]oxy]acetic acid methyl ester]
- % Inhib. of LTD4 (LTD4): 25 ± 12%

Structure (SMILES): CCCc1c(OCCCCC2CC(=O)c3ccc(OCC(=O)O)c(CCC)c3O2)ccc(C(C)=O)c1O (racemic) [rac.-[[2-[4-(4-acetyl-3-hydroxy-2-propylphenoxy)butyl]-3,4-dihydro-4-oxo-8-propyl-2H-1-benzopyran-7-yl]oxy]acetic acid]
- pIC50 [1, 2]: 6.30
- In vivo-aerosol % inhib. at (% conc.) (leukotriene E4; at 0.1 % conc.): 34.1 ± 8%

Structure (SMILES): CCCc1c(OCCCCCCC2(C)CC(=O)c3ccc(OCC(=O)O)c(CCC)c3O2)ccc(C(C)=O)c1O (racemic) [rac.-[[2-[6-(4-acetyl-3-hydroxy-2-propylphenoxy)hexyl]-3,4-dihydro-2-methyl-4-oxo-8-propyl-2H-1-benzopyran-7-yl]oxy]acetic acid]
- pIC50 [1, 2]: 6.30
- In vivo-aerosol IC50 (leukotriene E4): 0.26%

Structure (SMILES): CCCc1c(OCCCCCCC2CC(=O)c3ccc(OCC(=O)O)c(CCC)c3O2)ccc(C(C)=O)c1O (racemic) [rac.-[[2-[6-(4-acetyl-3-hydroxy-2-propylphenoxy)hexyl]-3,4-dihydro-4-oxo-8-propyl-2H-1-benzopyran-7-yl]oxy]acetic acid]
- pIC50 [1, 2]: 6.52
- In vivo-aerosol IC50 (leukotriene E4): 0.32%

Structure (SMILES): CCCc1c(OCC(O)Cc2ccc3c(=O)cc(C(=O)O)oc3c2CCC)ccc(C(C)=O)c1O (centres unmarked) [7-[3-(4-acetyl-3-hydroxy-2-propylphenoxy)-2-hydroxypropyl]-4-oxo-8-propyl-4H-1-benzopyran-2-carboxylic acid, reference compound]
- pIC50 ([1]; SRS-A challenge at EC50, read-out: IC50 of the standard SRS-A antagonist): 7.46

Source: patent publication US4650812A, “4-oxo-3,4-dihydro-2H-1-benzopyranyloxy alkanoic acid derivatives” (Hoffmann-La Roche Inc., priority 1985, dated 1987)
